This note sets out measurements from patent US20250388535A1, “SULFONATED AND SULFATED ARYL-ALKYL COMPOUNDS USEFUL AS SURFACTANTS” (SPECIALTY OPERATIONS FRANCE, priority 2022, published 2025).

This series in a line: Surface activity: critical micelle concentration and surface tension by force tensiometer. Particulars: for CMC / Surface tension (at CMC): aqueous solution, room temperature; for Cross-sectional area: area occupied by the surfactant molecule at the surface; for Cross-sectional area / Surface excess: from Gibbs adsorption equation. The series is classed as physicochemical. As for the experimental part:
Critical micelle concentrations (CMC) and surface tensions (ST) were measured for aqueous solutions of the surfactants of the present invention at room temperature using a force tensiometer (Sigma 700/701). Plots of surface tension against surfactant concentration were drawn allowing to determine CMC and surface tension at the CMC. Using the Gibbs adsorption equation it is possible to determine the surface excess as well as the area occupied by the surfactant molecule at the surface (as a reference see for example “Industrial Utilization of Surfactants: principles and practice”, M. J. Rosen and M. Dahanayake, 2000, ISBN 1893997111) which are important parameters to characterize a surfactant.

Turning to `CCCCCCCCCCCCCCC(C(O)c1ccccc1)S(=O)(=O)[O-].[Na+]` (centres unmarked) [PAS-C16], the CMC is recorded as 0.22 mM, the “Surface tension (at CMC)” value was found to be 36 mN/m, the Cross-sectional area is given as 0.53 nm^2 and the Surface excess was 0.0031 mmol/m^2.
The corresponding values for `CCCCCCCCCCCCCCC(C(=O)c1ccccc1)S(=O)(=O)[O-].[Na+]` (centres unmarked) [PAKS-C16] are 0.23 mM, 44 mN/m, 0.64 nm^2 and 0.0026 mmol/m^2.
